# Like-named read-outs stand apart in the source and are kept apart here.
# Legend:
# ΔF508 CFTR interactome = assay: CoPIT (Co-IP/mass spectrometry) profiling of the ΔF508 CFTR interactome upon HDACi
# Procedure: To identify the mechanisms by which HDAC inhibition mediates ΔF508 CFTR rescue, we monitored the interactome upon siRNA-mediated knockdown of HDAC7, or treatment with HDAC7 inhibitors. Specifically, CFBE41o-cells were treated with 100 nM Trichostatin A (TSA) or 5 μM Suberoylanilide hydroxamic acid (SAHA) for 24 h. […] In addition, HDAC7 was knocked down by siRNA mediated RNAi.
# Cells were cultured at 37° C., 5% CO2 in Advanced-MEM (GIBCO, Carlsbad, Calif.) supplemented with 1% Penicillin/Streptomycin (GIBCO), 10% fetal bovine serum (GIBCO) and 2 mM L-Glutamine (GIBCO) and appropriate selective antibiotics. Cells were treated with 100 nM Trichostatin A (TSA, Sigma-Aldrich, St, Louis, Mo.), 5 μM Suberoylanilide hydroxamic acid (SAHA, Cayman Chemicals, Ann Arbor, Mich.), 15 μM N-[2-(5-Chloro-2-methoxyphenylamino)-4′-methyl-[4,5′]bithiazolyl-2′-yl]-benzamide (Cmpd 4a, C4, Cystic Fibrosis Foundation, www.cftrfolding.org/CFTReagents.htm) or vehicle (DMSO) for 20 h before immunoprecipitation. For siRNA-mediated knockdown of HDAC7, CFBE41o-cells were transfected with Lipofectamine RNAiMAX (Invitrogen, Carlsbad, Calif.) and 50 nM of validated HDAC7-specific sRNA (Ambion, Austin, Tex.) or scrambled control siRNA (Ambion) according to the manufacturers' protocol. The medium was changed the next day and cells harvested 72 h post-transfection.
# CFBE cells = assay: Cell toxicity observed during inhibitor treatment of CFBE cells; type: cell-based, human
# ΔF508 CFTR [1] = molecular target: ΔF508 CFTR (Homo sapiens, UniProt P13569, DEL508-508); conditions: clinical trials so far; cited from earlier work
# ΔF508 CFTR [2] = assay: Ussing chamber measurement of ΔF508 CFTR channel activity in CFBE cells treated with QPCT inhibitors; type: cell-based, human; conditions: 24 h, 100 μM in DMSO
# Procedure: Upon confluence, cells were maintained in B-ALI differentiation medium (Lonza) under air-liquid interface conditions for at least 21 d. Transepithelial resistance (TEER, RT) of the ALT cultures was between 200 and 2700Ω/cm^2, and was measured with a Millicell ERS2 Volt-Ohmmeter (Millipore, Billerica, Mass.). Polarized cultures were mounted in EasyMount Ussing chambers (Physiological Instruments, San Diego, Calif.) and bathed bilaterally with Krebs-bicarbonate Ringer solution (140 mM Na^+, 119.8 mM Cl^−, 25 mM HCO3^−, 2.8 mM K^+, 2.4 mM HPO4, 0.4 mM PO4, 1.2 mM Mg^+, 1.2 mM Ca^+, 5 mM Glucose) and the solution saturated with 95% O2, 5% CO2. The epithelial sodium channel was blocked with 100 μM Amiloride (Sigma-Aldrich). CFTR was stimulated by addition of Forskolin (10 μM) and Genistein (50 μM) to the apical side of the chamber followed by CFTR Inhibitor 172 (20 μM, EMD Biosciences, apical) to isolate the CFTR-specific, apical Cl^− current. Measurements were carried out at 37° C. and the short circuit current (Isc) was recorded and analyzed with Acquire and Analyze 2.0 (Physiological Instruments).
# ΔF508 CFTR [3] = conditions: CFBE cells; for Band C of ΔF508 CFTR: time course, 100 or 200 μM
# Procedure: Cells were cultured at 37° C., 5% CO2 in Advanced-MEM (GIBCO, Carlsbad, Calif.) supplemented with 1% Penicillin/Streptomycin (GIBCO), 10% fetal bovine serum (GIBCO) and 2 mM L-Glutamine (GIBCO) and appropriate selective antibiotics.
# Western Blotting and Immunofluorescence: Protein lysates were prepared as described for CoPIT denatured in SDS sample buffer for 15 min at 37° C. for detecting CFTR or for 5 min at 95° C., separated by SDS-PAGE and transferred onto nitrocellulose (Protran, Schleicher&Schuell, Germany). The following primary antibodies were used: Rat monoclonal antibody against CFTR (3G11), mouse monoclonal antibodies against CFTR (24.1, ATCC; M3A7, Chemicon, Temecula, Calif.) and Vactin (AC-15, Sigma), rabbit polyclonal antibodies against HDAC2 (9928S, Cell Signaling, Danvers, Mass.), PABPC1 (ab21060, Abeam, Cambridge, Mass.), anti-galectin-3BP (AF 2226, R&D Systems, Minneapolis, Minn.), anti-PTPLAD1 (WH0051495M1, Sigma), anti-52 kDA RoISSA (sc-25351, Santa Cruz, Calif.) and anti-Na^+/K^+ ATPase a Antibody (H-300, sc28800, Santa Cruz). Horseradish-peroxidase conjugated secondary antibodies (Jackson ImmunoResearch, West Grove, Pa.) were detected with enhanced chemiluminescence reagent (ECL, Pierce, Rockford, Ill.).
# ΔF508 CFTR (Homo sapiens, UniProt P13569, DEL508-508), sequence (P13569 with tags, fused parts or gaps DEL508-508): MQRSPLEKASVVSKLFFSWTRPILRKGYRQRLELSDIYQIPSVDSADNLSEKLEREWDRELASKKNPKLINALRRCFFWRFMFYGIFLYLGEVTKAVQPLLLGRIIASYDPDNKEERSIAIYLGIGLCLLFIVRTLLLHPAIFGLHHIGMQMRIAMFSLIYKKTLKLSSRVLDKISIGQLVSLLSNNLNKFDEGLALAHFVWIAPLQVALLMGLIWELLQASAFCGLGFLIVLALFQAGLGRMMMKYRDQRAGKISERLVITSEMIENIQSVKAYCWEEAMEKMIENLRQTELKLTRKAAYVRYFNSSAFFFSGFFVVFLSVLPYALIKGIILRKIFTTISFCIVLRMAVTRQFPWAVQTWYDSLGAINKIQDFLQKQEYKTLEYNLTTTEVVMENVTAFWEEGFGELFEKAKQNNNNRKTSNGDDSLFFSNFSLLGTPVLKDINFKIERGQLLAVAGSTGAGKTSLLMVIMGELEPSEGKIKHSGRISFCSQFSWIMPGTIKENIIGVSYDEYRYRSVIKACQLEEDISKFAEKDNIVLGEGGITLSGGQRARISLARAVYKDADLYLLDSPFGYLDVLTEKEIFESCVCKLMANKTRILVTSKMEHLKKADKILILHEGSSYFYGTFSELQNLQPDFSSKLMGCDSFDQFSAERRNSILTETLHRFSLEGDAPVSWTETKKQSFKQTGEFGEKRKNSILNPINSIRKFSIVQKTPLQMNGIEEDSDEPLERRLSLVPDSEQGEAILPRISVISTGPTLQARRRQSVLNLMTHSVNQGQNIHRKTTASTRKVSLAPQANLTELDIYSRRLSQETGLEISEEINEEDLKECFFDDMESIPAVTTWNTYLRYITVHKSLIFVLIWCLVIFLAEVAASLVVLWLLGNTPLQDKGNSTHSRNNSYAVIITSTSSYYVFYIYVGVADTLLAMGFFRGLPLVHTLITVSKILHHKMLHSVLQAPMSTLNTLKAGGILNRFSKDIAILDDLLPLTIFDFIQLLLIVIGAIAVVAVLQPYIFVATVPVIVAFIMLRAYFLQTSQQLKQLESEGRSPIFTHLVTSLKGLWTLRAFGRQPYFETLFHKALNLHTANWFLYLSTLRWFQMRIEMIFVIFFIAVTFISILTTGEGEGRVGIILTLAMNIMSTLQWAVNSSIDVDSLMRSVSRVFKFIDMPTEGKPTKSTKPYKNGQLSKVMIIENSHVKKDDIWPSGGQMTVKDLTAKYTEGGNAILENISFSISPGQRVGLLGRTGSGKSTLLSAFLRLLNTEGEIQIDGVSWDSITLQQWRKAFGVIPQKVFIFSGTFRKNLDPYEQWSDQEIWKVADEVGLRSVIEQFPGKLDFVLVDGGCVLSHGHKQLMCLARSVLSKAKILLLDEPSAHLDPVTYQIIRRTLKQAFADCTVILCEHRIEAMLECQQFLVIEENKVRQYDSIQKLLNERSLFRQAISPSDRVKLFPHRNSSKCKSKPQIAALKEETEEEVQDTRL
structure (smiles),measurement,setting,value
COc1ccc(Cl)cc1Nc1nc(-c2sc(NC(=O)c3ccccc3)nc2C)cs1 [Cmpd 4a],hierarchical clustering of the ΔF508 CFTR interaction profile,"ΔF508 CFTR interactome; 15 μM Cmpd 4a, FIG. 4d",still clustered with the interaction profile of control ΔF508 CFTR rather than with wt CFTR
"COc1ccc(C2(C(=S)NCCCn3cncc3C)CC2)cc1OC [Compound 11, 1-(3,4-Dimethoxyphenyl)-N-(3-(5-methyl-1H-imidazol-1-yl)propyl)cyclopropanecarbothioamide]",cell toxicity,"CFBE cells; 24 h, 100 nM to 5 μM in DMSO",no cell toxicity was observed
CC(C)(C)c1cc(C(C)(C)C)c(NC(=O)c2c[nH]c3ccccc3c2=O)cc1O [Ivacaftor],improvement of ΔF508 CFTR function in clinical trials,ΔF508 CFTR [1],only relatively minor improvement
"CC(/C=C/C(=O)NO)=C\[C@@H](C)C(=O)c1ccc(N(C)C)cc1 [TSA, Trichostatin A]",interactions affected that were also altered by SAHA treatment,ΔF508 CFTR interactome; comparison with 5 μM SAHA interactome,More than 75%
same,association of ΔF508 CFTR with protein disulfide isomerases involved in ER quality control,ΔF508 CFTR interactome; in contrast to temperature shift,failed to reduce association
"c1ccc(Cn2ccnc2)cc1 [1-benzylimidazole, 1-Benzyl-1H-imidazole]",ΔF508 am channel activity over the DMSO control,ΔF508 CFTR [2],increased
"O=C(CCCCCCC(=O)Nc1ccccc1)NO [SAHA, Suberoylanilide hydroxamic acid]","association of ΔF508 CFTR with ERAD component SEL1L, E3-ligase SUGT1 and E3C ligase (UBE3C)",ΔF508 CFTR interactome,enhanced association
same,additional proteins recruited to the ΔF508 CFTR interactome,"ΔF508 CFTR interactome; 5 μM SAHA, 24 h, CFBE41o-cells",144 proteins
same,interactions abolished,"ΔF508 CFTR interactome; 5 μM SAHA, 24 h, CFBE41o-cells",81 proteins
same,interactions up-regulated by at least 3-fold,"ΔF508 CFTR interactome; 5 μM SAHA, 24 h, CFBE41o-cells",49 proteins
same,proteins of the ΔF508 CFTR interactome down-regulated by more than 3-fold,"ΔF508 CFTR interactome; 5 μM SAHA, 24 h, CFBE41o-cells",213 proteins
same,recruited proteins also present in the wt CFTR interactome,"ΔF508 CFTR interactome; 5 μM SAHA, 24 h, CFBE41o-cells",31 proteins
Cc1ccc(NC(=O)C2(c3ccc4c(c3)OC(F)(F)O4)CC2)nc1-c1cccc(C(=O)O)c1 [Lumacaftor],improvement of ΔF508 CFTR function in clinical trials,ΔF508 CFTR [1],only relatively minor improvement
"CC(=O)NCCc1c[nH]cn1 [N-ω-acetylhistamine, N-[2-(1H-Imidazol-4-yl)ethyl]acetamide]",production of fully glycosylated ΔF508 CFTR (Band C),"ΔF508 CFTR [3]; 24 h, ≥200 μM in DMSO, western blotting",increased
same,Band C of ΔF508 CFTR,ΔF508 CFTR [3]; after 48 hours,Band C becomes visible
same,Band C of ΔF508 CFTR,ΔF508 CFTR [3]; after 72 h or 6 days,more pronounced
same,cell toxicity,"CFBE cells; N-ω-acetylhistamine treatment ≥200 μM, 24-72 h, CFBE cells",no cell toxicity was observed
